In this experiment the test system is IL-6 production in human foreskin fibroblast cells. Put plainly: Inhibition of IL-6 Production in Fibroblasts (Cell Assay for Transrepression). The format is cell-based. To be noted: IL-1 stimulated human foreskin fibroblasts; for EC50: read-out: agonistic activity (EC50) by inhibiting IL-6 production in Fibroblasts; for Emax: read-out: efficacy by inhibiting IL-6 production in Fibroblasts. On the procedure: 2. Inhibition of IL-6 Production in Fibroblasts (Cell Assay for Transrepression)
Human foreskin fibroblast cells produce IL-6 in response to stimulation by proinflammatory cytokine IL-1.
Human foreskin fibroblast cells (ATCC Cat. No. CRL-2429) are plated on 96 well plates at 5,000 cells per well the day before use, in Iscove's Modified Dulbecco's Media (GibcoBRL Life Technologies Cat. No. 12440-053) supplemented with 10% charcoal filtered FBS (Clonetech Cat. No. SH30068) and Gentamycin (GibcoBRL Life Technologies Cat. No. 15710-064). On the next day, media in the wells is replaced with fresh media. Cells are treated with IL-1 (rhIL-1α, R&D Systems Cat. No. 200-LA) to a final concentration of 1 ng/mL, and with test compounds to final concentrations of 10^−5 M to 10^−8 M, in a total volume of 200 μL per well. Samples are done in duplicates. […] Positive control wells receive IL-1 only and represent maximum (or 100%) amount of IL-6 production. Plates are incubated at 37° C. overnight (15 to 18 hours), and supernatants are harvested at the end of incubation. IL-6 levels in the supernatants are determined by the ELISA kits for IL-6 (MedSystems Diagnostics GmbH, Vienna, Austria, Cat. No. BMS213TEN) according to manufacture's instructions. The extent of inhibition of IL-6 by test compounds is expressed in percentage relative to positive controls. IC50 values of test compounds are derived by non-linear curve fitting.

For the molecule `Cn1cc(C(O)(c2ccc3c(cnn3-c3cccnc3)c2)C(F)(F)F)c2ccccc21` (stereo not drawn) [2,2,2-Trifluoro-1-(1-methyl-1H-indol-3-yl)-1-(1-pyridin-3-yl-1H-indazol-5-yl)ethanol], the 50% effective concentration (EC50) was at most 1000 nM and the Emax was above 50%.

Regarding `NC(=O)Cn1cc(C(O)(c2ccc3c(cnn3-c3ccc(F)cc3)c2)C(F)(F)F)c2cccnc21` (stereo not drawn) [2-(3-{2,2,2-Trifluoro-1-[1-(4-fluorophenyl)-1H-indazol-5-yl]-1-hydroxyethyl}pyrrolo[2,3-b]pyridin-1-yl)acetamide], the concentration giving a half-maximal response (EC50) was at most 1000 nM and the Emax was above 50%.

As for `OCC(O)Cn1cc(C(O)(c2ccc3c(cnn3-c3ccc(F)cc3)c2)C(F)(F)F)c2ccc(Br)cc21` (stereo not drawn) [3-(6-Bromo-3-{2,2,2-trifluoro-1-[1-(4-fluorophenyl)-1H-indazol-5-yl]-1-hydroxyethyl}indol-1-yl)propane-1,2-diol], the EC50 is at most 1000 nM and the Emax was above 50%.

Regarding `C=CCn1cc(C(O)(c2ccc3c(cnn3-c3ccc(F)cc3)c2)C(F)(F)F)c(C#N)n1` (stereo not drawn) [1-Allyl-4-{2,2,2-trifluoro-1-[1-(4-fluorophenyl)-1H-indazol-5-yl]-1-hydroxyethyl}-1H-pyrazole-3-carbonitrile], the EC50 is at most 1000 nM and the Emax was above 50%.

Consider `OCCn1cc(C(O)(c2ccc3c(cnn3-c3ccc(F)cc3)c2)C(F)(F)F)c2ncnc(Cl)c21` (stereo not drawn) [1-[4-Chloro-5-(2-hydroxyethyl)-5H-pyrrolo[3,2-d]pyrimidin-7-yl]-2,2,2-trifluoro-1-[1-(4-fluorophenyl)-1H-indazol-5-yl]ethanol], for which the concentration for a half-maximal effect (EC50) was at most 1000 nM and the Emax is above 50%.

With `CC(C)NC(=O)n1ncc2cc(C(O)(c3cn(C)c4ccccc34)C(F)(F)F)ccc21` (stereo not drawn) [5-[2,2,2-Trifluoro-1-hydroxy-1-(1-methyl-1H-indol-3-yl)ethyl]indazole-1-carboxylic acid isopropylamide], the concentration for a half-maximal effect (EC50) was at most 1000 nM and the Emax was above 50%.

With `CC1(C)OCC(Cn2cc(C(O)(c3ccn4c(-c5ccc(F)cc5)ncc4c3)C(F)(F)F)c3ccccc32)O1` (stereo not drawn) [1-[1-(2,2-Dimethyl-1,3-dioxolan-4-ylmethyl)-1H-indol-3-yl]-2,2,2-trifluoro-1-[3-(4-fluorophenyl)imidazo[1,5-a]pyridin-7-yl]ethanol], the 50% effective concentration (EC50) is at most 1000 nM and the Emax was above 50%.

With `NC(=O)CCn1cc(C(O)(c2ccc3c(cnn3-c3ccc(F)cc3)c2)C(F)(F)F)c2ccccc21` (stereo not drawn) [3-(3-{2,2,2-Trifluoro-1-[1-(4-fluorophenyl)-1H-indazol-5-yl]-1-hydroxyethyl}indol-1-yl)propionamide], the concentration for a half-maximal effect (EC50) is at most 1000 nM and the Emax was above 50%.

For `Cc1cc(C(O)(c2ccc3c(cnn3-c3ccc(F)cc3)c2)C(F)(F)F)cn(CC(N)=O)c1=O` (stereo not drawn) [(3-Methyl-2-oxo-5-{2,2,2-trifluoro-1-[1-(4-fluorophenyl)-1H-indazol-5-yl]-1-hydroxyethyl}-2H-pyridin-1-yl)acetamide], the concentration for a half-maximal effect (EC50) was at most 1000 nM and the Emax was above 50%.

As for `Cn1cc(C(O)(c2ccc3c(cnn3-c3ccsc3)c2)C(F)(F)F)c2ccccc21` (stereo not drawn) [2,2,2-Trifluoro-1-(1-methyl-1H-indol-3-yl)-1-(1-thiophen-3-yl-1H-indazol-5-yl)ethanol], the EC50 was at most 1000 nM and the Emax is above 50%.

For the molecule `OCC(O)Cn1cc(C(O)(c2ccn3c(-c4ccc(F)cc4)ncc3c2)C(F)(F)F)c2ccccc21` (stereo not drawn) [3-(3-{2,2,2-Trifluoro-1-[3-(4-fluorophenyl)imidazo[1,5-a]pyridin-7-yl]-1-hydroxyethyl}indol-1-yl)propane-1,2-diol], the 50% effective concentration (EC50) was at most 1000 nM and the Emax is above 50%.

As to `CNC(=O)CCn1cc(C(O)(c2ccc3c(cnn3-c3ccc(F)cc3)c2)C(F)(F)F)c2ccccc21` (stereo not drawn) [N-Methyl-3-(3-{2,2,2-trifluoro-1-[1-(4-fluorophenyl)-1H-indazol-5-yl]-1-hydroxyethyl}indol-1-yl)propionamide], the EC50 was at most 1000 nM and the Emax was above 50%.

Take `N#Cc1nn(CC(O)CO)cc1C(O)(c1ccc2c(cnn2-c2ccc(F)cc2)c1)C(F)(F)F` (stereo not drawn) [1-(2,3-Dihydroxypropyl)-4-{2,2,2-trifluoro-1-[1-(4-fluorophenyl)-1H-indazol-5-yl]-1-hydroxyethyl}-1H-pyrazole-3-carbonitrile]: the EC50 is at most 1000 nM and the Emax was above 50%.

For the molecule `CCOC(=O)Cn1cc(C(O)(c2ccc3c(cnn3-c3ccc(F)cc3)c2)C(F)(F)F)c2ccccc21` (stereo not drawn) [(3-{2,2,2-Trifluoro-1-[1-(4-fluorophenyl)-1H-indazol-5-yl]-1-hydroxyethyl}indol-1-yl)acetic acid ethyl ester], the EC50 is at most 1000 nM and the Emax is above 50%.

In the case of `N#CCn1cc(C(O)(c2ccc3c(cnn3-c3ccc(F)cc3)c2)C(F)(F)F)c2cccnc21` (stereo not drawn) [(3-{2,2,2-Trifluoro-1-[1-(4-fluorophenyl)-1H-indazol-5-yl]-1-hydroxyethyl}pyrrolo[2,3-b]pyridin-1-yl)acetonitrile], the EC50 is at most 1000 nM and the Emax was above 50%.

For the molecule `Cn1cc(C(O)(c2ccc3c(c2)nnn3-c2ccc(F)cc2)C(F)(F)F)c2ccccc21` (stereo not drawn) [2,2,2-Trifluoro-1-[1-(4-fluorophenyl)-1H-benzotriazol-5-yl]-1-(1-methyl-1H-indol-3-yl)ethanol], the 50% effective concentration (EC50) is at most 1000 nM and the Emax is above 50%.

For `OC(c1ccc2c(cnn2-c2ccc(F)cc2)c1)(c1c[nH]c2c(Cl)nccc12)C(F)(F)F` (stereo not drawn) [1-(7-Chloro-1H-pyrrolo[2,3-c]pyridin-3-yl)-2,2,2-trifluoro-1-[1-(4-fluorophenyl)-1H-indazol-5-yl]ethanol], the 50% effective concentration (EC50) was at most 1000 nM and the Emax was above 50%.

As for `C=CCn1cc(C(O)(c2ccc3c(cnn3-c3ccc(F)cc3)c2)C(F)(F)F)c2ccn(C)c(=O)c21` (stereo not drawn) [1-Allyl-6-methyl-3-{2,2,2-trifluoro-1-[1-(4-fluorophenyl)-1H-indazol-5-yl]-1-hydroxyethyl}-1,6-dihydropyrrolo[2,3-c]pyridin-7-one], the concentration giving a half-maximal response (EC50) was at most 1000 nM and the Emax is above 50%.

As to `OCC(O)Cn1cc(C(O)(c2ccc3c(c2)nnn3-c2ccc(F)cc2)C(F)(F)F)c2ccccc21` (stereo not drawn) [3-(3-{2,2,2-Trifluoro-1-[1-(4-fluorophenyl)-1H-benzotriazol-5-yl]-1-hydroxyethyl}indol-1-yl)propane-1,2-diol], the EC50 was at most 1000 nM and the Emax was above 50%.

As to `COc1nccc2c(C(O)(c3ccc4c(cnn4-c4ccc(F)cc4)c3)C(F)(F)F)cn(CC(O)CO)c12` (stereo not drawn) [3-(7-Methoxy-3-{2,2,2-trifluoro-1-[1-(4-fluorophenyl)-1H-indazol-5-yl]-1-hydroxyethyl}pyrrolo[2,3-c]pyridin-1-yl)propane-1,2-diol], the EC50 is at most 1000 nM and the Emax is above 50%.

For the molecule `NC(=O)Cn1cc(C(O)(c2ccc3c(cnn3-c3ccc(F)cc3)c2)C(F)(F)F)c2ccnc(Cl)c21` (stereo not drawn) [2-(7-Chloro-3-{2,2,2-trifluoro-1-[1-(4-fluorophenyl)-1H-indazol-5-yl]-1-hydroxyethyl}pyrrolo[2,3-c]pyridin-1-yl)acetamide], the concentration for a half-maximal effect (EC50) was at most 1000 nM and the Emax was above 50%.

On to `CCOC(=O)c1cc(C(O)(c2ccc3c(cnn3-c3ccc(F)cc3)c2)C(F)(F)F)cn1CC(O)CO` (stereo not drawn) [1-(2,3-Dihydroxypropyl)-4-{2,2,2-trifluoro-1-[1-(4-fluorophenyl)-1H-indazol-5-yl]-1-hydroxyethyl}-1H-pyrrole-2-carboxylic acid ethyl ester], for which the EC50 was at most 1000 nM and the Emax was above 50%.

Turning to `C=CCn1cc(C(O)(c2ccc3c(cnn3-c3ccc(F)cc3)c2)C(F)(F)F)c2ccc(Br)cc21` (stereo not drawn) [1-(1-Allyl-6-bromo-1H-indol-3-yl)-2,2,2-trifluoro-1-[1-(4-fluorophenyl)-1H-indazol-5-yl]ethanol], the 50% effective concentration (EC50) was at most 1000 nM and the Emax was above 50%.

Turning to `Cn1cc(C(O)(c2ccn3c(-c4ccc(F)cc4)ncc3c2)C(F)(F)F)c2ccccc21` (stereo not drawn) [2,2,2-Trifluoro-1-[3-(4-fluorophenyl)imidazo[1,5-a]pyridin-7-yl]-1-(1-methyl-1H-indol-3-yl)ethanol], the EC50 is at most 1000 nM and the Emax was above 50%.

`C[C@H](O)Cn1cc(C(O)(c2ccc3c(cnn3-c3ccc(F)cc3)c2)C(F)(F)F)c2ccccc21` (stereo partly drawn) [(S)-1-(3-{2,2,2-Trifluoro-1-[1-(4-fluorophenyl)-1H-indazol-5-yl]-1-hydroxyethyl}indol-1-yl)propan-2-ol]: the 50% effective concentration (EC50) was at most 1000 nM and the Emax is above 50%.

For `C[C@@H](O)Cn1cc(C(O)(c2ccc3c(cnn3-c3ccc(F)cc3)c2)C(F)(F)F)c2ccccc21` (stereo partly drawn) [(R)-1-(3-{2,2,2-Trifluoro-1-[1-(4-fluorophenyl)-1H-indazol-5-yl]-1-hydroxyethyl}indol-1-yl)propan-2-ol], the half-maximal effective concentration (EC50) was at most 1000 nM and the Emax was above 50%.

As to `Cn1cc(C(O)(c2ccc3c(cnn3-c3ccc(F)nc3)c2)C(F)(F)F)c2ccccc21` (stereo not drawn) [2,2,2-Trifluoro-1-[1-(6-fluoropyridin-3-yl)-1H-indazol-5-yl]-1-(1-methyl-1H-indol-3-yl)ethanol], the 50% effective concentration (EC50) was at most 1000 nM and the Emax was above 50%.

The record behind these values is US8658637B2, “Glucocorticoid mimetics, methods of making them, pharmaceutical compositions and uses thereof” (Boehringer Ingelheim International GmbH, priority 2006, dated 2014).
